Several values for one entry are separate records, joined by “and”; a condition that tells them apart may be missing. Identical values can stand only once. Entries after “also recorded” stand apart in the source; their conditions may differ. Like-named read-outs stand apart in the source and are kept apart here. Marks after values point to notes of the source that are not given here.
Experiments:
[1] = test system: anti-rhGAA IgG antibodies; details: cited from earlier work
[2] = test system: anti-rhGAA IgG antibodies; details: 10 LOPD patients, 4 years, annual titers; cited from earlier work
[3] = test system: anti-rhGAA IgG antibodies; assay: Anti-rhGAA IgG antibody titers over time (ELISA, confirmed by radioimmunoprecipitation) in Pompe disease patients on ERT with TLD-MTX or on ERT monotherapy (comparators); type: in vivo, human; details: for Percent of patients in HSAT group: HSAT: titers >=51,200 on >=2 occasions at or beyond 6 months on ERT; for Percent of patients who developed HSAT or SIT: comparator group n=37, TLD-MTX group n=14; for Percent of patients in SIT group: SIT: titers >=12,800 and <51,200 within first year of ERT; for Overall immune tolerance outcome versus historical data: cohort conclusion in words; for Development of HSAT: methotrexate recipients: Example 2 (n=17), Example 3 (n=14, by data cutoff Jun. 16, 2017)
Protocol: Methotrexate at 0.4 mg/kg body weight was administered subcutaneously (or orally if subcutaneous administration was not possible) on three consecutive days/MTX cycle/infusion; with the first three ERT infusions (i.e., on Days 0, 14, and 28 for patients infused EOW) for a total of 3 cycles. On the day of ERT infusion, methotrexate was administered 15 minutes (if subcutaneous) or 1 hour (if oral) before infusion initiation and again on the following 2 days. To exemplify the schedule, in a patient receiving ERT infusion EOW, methotrexate was administered on Days 0, 1, and 2 (first cycle); Days 14, 15, and 16 (second cycle), and Days 28, 29, and 30 (third cycle). As stated earlier, the dose and frequency of ERT could be increased at the discretion of the treating physician, based on patients' clinical and IAR status, in which case methotrexate cycles were adjusted accordingly (see FIG. 2 for details).
Anti-rhGAA IgG antibodies were determined by Sanofi Genzyme (Framingham, MA, USA) using enzyme-linked immunosorbent assays and confirmed using radioimmunoprecipitation as described previously (Kishnani et al. (2006) J. Pediatr. 149:89-97). Antibody analyses were recommended to be performed at Days −1, 28, 56, 84, 112, 140, 168, 196, 224, 252, 280, 308, 336, and 364.
rhGAA IgG titers were determined over time. Patients were classified into HSAT (≥51,200 on ≥2 occasions at or beyond 6 months on ERT), sustained intermediate titer (SIT) (≥12,800 and <51,200 within the first year of ERT), and low titer (LT; ≤6,400 within the first year of ERT) groups based on the longitudinal anti-rhGAA IgG titers. […] Medians and ranges were determined for baseline, peak, and last titers, although our focus was on longitudinal titers through time because sustained titers affect clinical response.
The comparators received rhGAA alone. The GAA variant data and age at ERT initiation were compared with our cohort of TLD-MTX recipients. Immune responses over time were classified into HSAT, SIT, and LT as defined above, and time to seroconversion, peak titers, titers at Weeks 12, 24, and 52 were compared with our present cohort of TLD-MTX recipients.

[4] = test system: anti-rhGAA IgG antibodies; details: LOTS, cited from earlier work
[5] = Safety: hematologic and biochemical analyses (ANC, AST, ALT), adverse events and infections in methotrexate recipients; type: in vivo, human; details: for Neutropenia (ANC <750 cells/mm^3), percent of patients: transient; for ALT > 3x baseline (Yes/No) / ANC < 750 cells/mm^3 (Yes/No) / AST > 3x baseline (Yes/No): first 6 weeks on alglucosidase alfa
Protocol: On Days −1 (baseline), 13, 28, 42, 56, 84, 168, 252, 336, and 364, blood samples were recommended to be collected for hematologic and biochemical analyses for patients receiving ERT EOW. The sampling schedule was modified for patients receiving ERT weekly (FIG. 2). Complete and differential blood counts and platelets were evaluated and monitored for platelet counts <50,000/mm^3, ANC <750/mm^3, and treatment-resistant infections. Biochemical analyses monitored alanine aminotransferase (ALT), aspartate aminotransferase (AST), creatine kinase (CK), and CK-MB levels. Post-treatment increases in AST and ALT levels were noted if exceeding three times their respective baseline levels.

[6] = test system: anti-rhGAA IgG response; details: methotrexate alone, transient low dose co-initiated with ERT, Joseph et al. (2008); cited from earlier work
[7] = LT group, IOPD, seropositive titers <100 deemed 50
[8] = individual SIT patients IOPD13 and IOPD14 (patient named in the cell), listed as TLD-MTX
[9] = individual atypical IOPD patients

Alglucosidase alfa [ERT monotherapy]
Percent of patients with high antibody titers ([1]; CRIM-positive IOPD, 9 of 23, Banugaria et al. (2011)): 39%
Percent of patients developing HSAT ([1]; CRIM-positive patients with IOPD): ~40%
Percent of patients developing HSAT ([1]; patients with LOPD): 10%
Highest antibody titer of any patient [2]: ≤ 25,600
Range of peak titers ([3]; HSAT comparators (5/37)): 51,200-409,600
Group median last titer ([3]; HSAT group of 37 CRIM-positive IOPD comparators, median time on ERT Week 94): 102,400
Median peak titers ([3]; HSAT group, IOPD): 204,800 (range, 51,200-409,600)
Median titers (Week 12) ([3]; HSAT group, IOPD): 25,600
Median titers (Week 24) ([3]; HSAT group, IOPD): 25,600
Median titers (Week 52) ([3]; HSAT group, IOPD): 51,200
Seroconversion week (median time to seroconversion) ([3]; HSAT group, IOPD): ≤ 4 weeks
Percent of patients in HSAT group ([3]; IOPD): 13.5%
Percent of patients who developed HSAT or SIT ([3]; IOPD): 32.4%
Range of peak titers ([3]; LT comparators (23/37 as printed)): 200-12,800
Group median last titer ([3]; LT group of 37 CRIM-positive IOPD comparators, median time on ERT Week 130): 400
Median peak titers ([3]; LT group, IOPD): 800 (range, 200-12,800)
Median titers (Week 12) ([3]; LT group, IOPD): 400
Median titers (Week 24) ([3]; LT group, IOPD): 400
Seroconversion week (median time to seroconversion) ([3]; LT group, IOPD): 8 weeks
Median titers (Week 52) [3, 7]: 200
Percent of patients in LT group ([3]; LT: titers <=6,400 within first year of ERT, IOPD): 67.6%
Range of peak titers ([3]; SIT (IT) comparators (7/37)): 12,800-51,000
Group median last titer ([3]; SIT group of 37 CRIM-positive IOPD comparators, median time on ERT Week 104): 1,600
Median peak titers ([3]; SIT group, IOPD): 25,600 (range, 12,800-51,200)
Median titers (Week 12) ([3]; SIT group, IOPD): 12,800
Median titers (Week 24) ([3]; SIT group, IOPD): 12,800
Median titers (Week 52) ([3]; SIT group, IOPD): 3,200
Seroconversion week (median time to seroconversion) ([3]; SIT group, IOPD): 4 weeks
Percent of patients in SIT group ([3]; IOPD): 18.9%
Geometric mean titer, maximum ([4]; LOPD, Week 44): 2,925
Geometric mean titer, last ([4]; LOPD, Week 78): 1,607
Median last titer ([4]; LOPD, Week 78): 1,600
Median peak titer ([4]; LOPD, median time 12 weeks of alglucosidase alfa therapy): 6,400
Peak IgG titer quartile ([4]; first quartile (n=17)): 200-1,600
Peak IgG titer quartile ([4]; fourth quartile (n=14)): 25,600-819,200
Peak IgG titer quartile ([4]; second quartile (n=12)): 3,200
Peak IgG titer quartile ([4]; third quartile (n=16)): 6,400-12,800

CN(Cc1cnc2nc(N)nc(N)c2n1)c1ccc(C(=O)N[C@@H](CCC(=O)O)C(=O)O)cc1 [methotrexate]
Median last titer ([3]; 17 CRIM-positive IOPD, atypical IOPD and LOPD methotrexate recipients (Example 2), median ~68 weeks on alglucosidase alfa): 100 (range, 0-6400) and 100 (range 0-6400)
Patients remaining seronegative ([3]; Example 2 cohort of 17 patients): 1 of 17
Highest observed titer in the study ([3]; Example 2 cohort, IOPD patient (Patient 3) given one methotrexate dose each in cycles 2 and 3): 12,800
Percent of patients in HSAT group ([3]; IOPD): 0%
Titer ([3]; IOPD Patient 3, Week 49): 400
Titer ([3]; IOPD Patient 3, by Week 20): 3200
Percent of patients who developed HSAT or SIT ([3]; IOPD): 14.2%
Median peak titers ([3]; LT group, IOPD): 3,200
Median titers (Week 12) ([3]; LT group, IOPD): 1,600
Median titers (Week 24) ([3]; LT group, IOPD): 600
Median titers (Week 52) [3, 7]: 250***
Percent of patients in SIT group ([3]; IOPD): 14.2% (n = 2)
Overall immune tolerance outcome versus historical data ([3]; listed as TLD-MTX): successfully blunted the immune response overall
Overall immune tolerance outcome versus historical data ([3]; listed as low-dose methotrexate): successfully induced immune tolerance
Peak antibody titer since immune tolerance induction ([3]; individual IOPD patients (one line per patient), >6 months follow-up, methotrexate 0.4 mg/kg, 3 cycles, with alglucosidase alfa): 3,200 (3×) and <100 and 200 and 800 (3×) and 6,400
Peak antibody titer since immune tolerance induction ([3]; individual IOPD patients (one line per patient), >6 months follow-up, methotrexate 0.4 mg/kg, 3 cycles, with alglucosidase alfa, single methotrexate dose in cycles 2 and 3): 12,800*
Last antibody titer ([3]; individual IOPD patients (one line per patient), last titer at 42-122 weeks on ERT): 0 (4×) and 400 and <100 and 100 (2×) and 6,400
Last antibody titer ([3]; individual IOPD patients (one line per patient), last titer at 42-122 weeks on ERT, single methotrexate dose in cycles 2 and 3): 400
Peak antibody titer ([3]; individual IOPD patients IOPD1-IOPD14 (one line per patient) on TLD-MTX protocol, >6 months follow-up): 12,800* and 3,200 (4×) and 200 (2×) and 800 (3×) and 6,400 and 51,200** and 25,600*** and <100
Last antibody titer ([3]; individual IOPD patients IOPD1-IOPD14 on TLD-MTX protocol, last titer at 32-122 weeks on ERT): 400 (3×) and 0 (4×) and <100 and 100 (2×) and 6,400 and 200 and 12,800 and 12.800
Peak antibody titer since immune tolerance induction ([3]; individual LOPD patients (one line per patient), >6 months follow-up): 1,600 and 800
Last antibody titer ([3]; individual LOPD patients, last titer at 63 and 27 weeks on ERT): 0 and 400
Titer (Week 52) ([3]; individual SIT patient IOPD13): IOPD13: 12,800
Peak titer [3, 8]: IOPD13: 51,200;; also recorded: IOPD14: 12,800
Titer (Week 12) [3, 8]: IOPD13: 12,800;; also recorded: IOPD14: 25,600
Titer (Week 24) [3, 8]: IOPD13: 12,800;; also recorded: IOPD14: 12,800
Peak antibody titer since immune tolerance induction ([3]; individual atypical IOPD patients (one line per patient), >6 months follow-up): 3,200 and Never and <100 and 800 and 200
Last antibody titer ([3]; individual atypical IOPD patients, last titer at 58-145 weeks on ERT): 400 and 0 and <100 and 200 (2×)
Peak antibody titer, median ([3]; median of 14 IOPD patients on TLD-MTX protocol): 3,200
Last antibody titer, median ([3]; median of 14 IOPD patients on TLD-MTX protocol, median time on ERT ~71 weeks): 150 (range, 0-12,800)
Development of HSAT [3]: No patients who received methotrexate developed HSAT; also recorded: No methotrexate recipients developed HSAT
Development of HSAT ([3]; listed as TLD-MTX): No patients who received TLD-MTX developed HSAT
Maximal titer ([3]; one methotrexate-treated LOPD patient, Weeks 16 and 20): 1,600
Titers remaining (seropositive on screening assay, below limit of titer measurement) ([3]; patient IOPD2): < 100
Titer ([3]; patient IOPD13, Week 7 only): 51,200
Peak titer after the cutoff date (HSAT developed) ([3]; patient IOPD13, Week 76): 102,400
Titer ([3]; patient IOPD13, Weeks 12 and 37): 25,600
Titer ([3]; patient IOPD13, Weeks 14, 17, 23, 31 and 44): 12,800
Titer ([3]; patient IOPD14, Week 28 only): 25,600
Last titer after the cutoff for data collection ([3]; patient IOPD14, Week 36): 6,400
Titer ([3]; patient IOPD14, Weeks 12, 16, 24 and 32): 12,800
Titer ([3]; same LOPD patient, Week 63): 0
Titer ([3]; same LOPD patient, Weeks 32-55): 100
Titer ([3]; the other LOPD patient, Week 27): 400
Maximal titer ([3]; the other methotrexate-treated LOPD patient, Weeks 9-16): 800
Neutropenia (ANC <750 cells/mm^3), percent of patients ([5]; 2 of 9 IOPD patients with ANC data (Example 2)): 22%
Neutropenia (ANC <750 cells/mm^3), percent of patients ([5]; 2 of 13 IOPD patients with ANC data (Example 3)): 15.4%
ALT > 3x baseline (Yes/No) ([5]; individual IOPD patients): Yes (3×) and No (5×)
ANC < 750 cells/mm^3 (Yes/No) ([5]; individual IOPD patients): Yes (2×) and No (7×)
AST > 3x baseline (Yes/No) ([5]; individual IOPD patients): No (7×) and Yes
ALT > 3x baseline (Yes/No) ([5]; individual LOPD patients): No
ANC < 750 cells/mm^3 (Yes/No) ([5]; individual LOPD patients): No
AST > 3x baseline (Yes/No) ([5]; individual LOPD patients): No
ALT > 3x baseline (Yes/No) [5, 9]: No
ANC < 750 cells/mm^3 (Yes/No) [5, 9]: No
AST > 3x baseline (Yes/No) [5, 9]: No
Overall tolerability ([5]; methotrexate recipients): tolerated the methotrexate protocol reasonably
Serious AEs related to methotrexate ([5]; methotrexate recipients): No serious AEs were related to methotrexate
Patients with hospitalizations related to infections around the time of methotrexate administration ([5]; patients with infection data available (Example 3), resolved): Two of nine
Effect on anti-rhGAA IgG response [6]: sustainably reduced anti-rhGAA IgG response

Source: patent publication US11944628B2, “Methods for the use of low-dose immune modulators transiently for treating patients undergoing protein replacement therapy” (Duke University, priority 2017, dated 2024)
